What was measured:
[1] = target: fusion enzyme F2, H3N-P450scc-AdRed-Adx-COOH (human P450scc, adrenodoxin reductase 18- form, adrenodoxin) (Homo sapiens, UniProt P05108+P22570); conditions: substrate 0.5 to 5.0 μM, 24 h incubation, F2-transfected COS-1 cells
Description: (§1) Cells were maintained at 37° C. in 5% CO2.
(§2) All samples were assayed in triplicate.

[2] = target: human P450scc (SEQ ID NO: 2), natural three-component system co-expressed with adrenodoxin and adrenodoxin reductase (Homo sapiens, UniProt P05108); conditions: substrate 0.5 to 5.0 μM, 24 h incubation, triply transfected COS-1 cells
Description: as §1, §2

cytochrome P450scc = target: T1, cytochrome P450scc (Bos taurus, UniProt P00189); conditions: Morisaki et al 1980; cited from earlier work
T1 sequence (P00189 40-520): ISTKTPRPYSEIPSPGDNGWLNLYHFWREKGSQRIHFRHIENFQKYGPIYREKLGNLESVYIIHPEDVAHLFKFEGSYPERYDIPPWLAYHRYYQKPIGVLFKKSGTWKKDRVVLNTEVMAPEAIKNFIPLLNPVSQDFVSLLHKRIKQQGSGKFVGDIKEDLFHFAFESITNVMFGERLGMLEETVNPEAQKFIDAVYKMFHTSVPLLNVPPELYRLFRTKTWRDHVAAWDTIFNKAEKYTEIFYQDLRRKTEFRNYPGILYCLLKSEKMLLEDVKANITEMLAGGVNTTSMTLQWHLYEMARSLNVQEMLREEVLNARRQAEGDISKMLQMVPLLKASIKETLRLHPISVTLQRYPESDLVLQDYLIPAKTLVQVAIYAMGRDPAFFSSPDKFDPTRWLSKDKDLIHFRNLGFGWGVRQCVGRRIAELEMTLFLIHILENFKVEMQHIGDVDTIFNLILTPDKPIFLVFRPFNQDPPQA

Chain of fusion enzyme F2, H3N-P450scc-AdRed-Adx-COOH (human P450scc, adrenodoxin reductase 18- form, adrenodoxin) (P05108+P22570 fused): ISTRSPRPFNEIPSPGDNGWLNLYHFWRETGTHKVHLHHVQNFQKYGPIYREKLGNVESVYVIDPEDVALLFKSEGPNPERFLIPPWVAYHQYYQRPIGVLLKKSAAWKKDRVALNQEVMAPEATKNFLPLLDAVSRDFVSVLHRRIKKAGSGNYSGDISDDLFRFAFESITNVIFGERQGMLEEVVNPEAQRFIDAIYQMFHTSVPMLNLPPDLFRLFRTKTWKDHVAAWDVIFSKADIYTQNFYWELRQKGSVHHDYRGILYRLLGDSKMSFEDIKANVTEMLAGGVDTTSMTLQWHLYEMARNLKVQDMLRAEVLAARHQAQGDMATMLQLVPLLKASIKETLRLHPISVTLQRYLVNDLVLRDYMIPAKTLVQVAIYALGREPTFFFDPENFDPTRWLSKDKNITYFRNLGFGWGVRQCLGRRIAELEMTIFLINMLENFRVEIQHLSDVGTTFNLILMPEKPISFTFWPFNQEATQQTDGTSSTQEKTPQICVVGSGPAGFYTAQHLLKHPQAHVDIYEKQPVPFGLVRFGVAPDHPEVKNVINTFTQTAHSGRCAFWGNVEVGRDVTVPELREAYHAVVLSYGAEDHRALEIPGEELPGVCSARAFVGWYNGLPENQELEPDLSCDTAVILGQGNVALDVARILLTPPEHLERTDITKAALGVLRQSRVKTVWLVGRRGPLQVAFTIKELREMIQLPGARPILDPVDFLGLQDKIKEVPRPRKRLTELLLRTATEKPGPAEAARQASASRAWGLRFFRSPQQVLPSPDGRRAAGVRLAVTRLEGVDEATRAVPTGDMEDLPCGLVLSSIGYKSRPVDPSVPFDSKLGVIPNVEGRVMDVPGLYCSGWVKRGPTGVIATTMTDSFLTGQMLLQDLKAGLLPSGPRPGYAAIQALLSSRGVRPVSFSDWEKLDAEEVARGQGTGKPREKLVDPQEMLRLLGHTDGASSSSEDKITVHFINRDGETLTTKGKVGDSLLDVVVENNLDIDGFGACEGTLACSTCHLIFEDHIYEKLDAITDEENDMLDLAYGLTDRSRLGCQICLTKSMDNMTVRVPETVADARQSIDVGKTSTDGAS
Chain of human P450scc (SEQ ID NO: 2), natural three-component system co-expressed with adrenodoxin and adrenodoxin reductase (P05108 40-521 I301M): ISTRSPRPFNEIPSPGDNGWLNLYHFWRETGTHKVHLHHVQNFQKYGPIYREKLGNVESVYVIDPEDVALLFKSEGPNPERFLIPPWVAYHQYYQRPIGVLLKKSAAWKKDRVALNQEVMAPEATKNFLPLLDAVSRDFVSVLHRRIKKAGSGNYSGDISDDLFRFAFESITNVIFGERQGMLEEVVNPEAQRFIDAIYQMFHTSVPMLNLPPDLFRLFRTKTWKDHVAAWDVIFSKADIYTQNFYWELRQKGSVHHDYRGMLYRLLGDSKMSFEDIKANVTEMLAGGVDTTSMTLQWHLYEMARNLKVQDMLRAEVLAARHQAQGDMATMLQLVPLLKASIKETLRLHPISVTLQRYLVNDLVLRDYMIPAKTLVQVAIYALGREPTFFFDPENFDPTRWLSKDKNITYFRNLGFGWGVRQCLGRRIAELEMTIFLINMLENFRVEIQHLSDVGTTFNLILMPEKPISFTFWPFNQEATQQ

| Compound | Km [1] [µM] | Vmax ([1]; pregnenolone in culture medium) [ng/ml/24 h] | Vmax [2] | Km ([2]; dose-response data) [µM] | turnover (cholesterol converted per enzyme) (cytochrome P450scc) |
| --- | --- | --- | --- | --- | --- |
| CC(C)CC[C@@H](O)[C@@H](C)[C@H]1CC[C@H]2[C@@H]3CC=C4C[C@@H](O)CC[C@]4(C)[C@H]3CC[C@]12C [22R-hydroxycholesterol] | 2.85 | 9.1 | 1.7 ng pregnenolone/ml of culture medium/24 h | 0.37 | – |
| CC(C)CCC[C@@H](C)[C@H]1CC[C@H]2[C@@H]3CC=C4C[C@@H](O)CC[C@]4(C)[C@H]3CC[C@]12C [cholesterol] | – | – | – | – | about 1 mole of cholesterol per mole of enzyme per second |
